These compounds were tested against human PDE10A full length (Homo sapiens (Human), UniProt Q9Y233) (assay: human PDE10A full length Scintillation Proximity Assay (SPA)). Settings: PDE10A enzyme, 50 nM cGMP + 50 nM [3H]-cGMP, 20 minutes at room temperature.
Type: biochemical
Experimental: The following test was carried out in order to determine the activity of the compounds of the present invention. PDE10 activity of the compounds of the present invention was determined using a Scintillation Proximity Assay (SPA)-based method similar to the one previously described (Fawcett, L. et al., Proc Natl Acad Sci USA (2000) 97(7):3702-3707).
The human PDE10A full length assay was performed in 96-well micro titer plates. The reaction mixture of 50 μl contained 20 mM HEPES pH=7.5/10 mM MgCl2/0.05 mg/ml BSA (Sigma cat. #A-7906), 50 nM cGMP (Sigma, cat. #G6129) and 50 nM [3H]-cGMP (GE Healthcare, cat. #TRK392 S.A. 13.2 Ci/mmol), 3.75 ng/well PDE10A enzyme (Enzo Life Science, Lausen, Switzerland cat #SE-534) with or without a specific test compound. A range of concentrations of the potential inhibitor was used to generate data for calculating the concentration of inhibitor resulting in 50% of the effect (e.g. IC50, the concentration of the competitor inhibiting PDE10A activity by 50%). Non-specific activity was tested without the enzyme. The reaction was initiated by the addition of the substrate solution (cGMP and [3H]-cGMP) and allowed to progress for 20 minutes at room temperature. The reaction was terminated by adding 25 μl of YSi-SPA scintillation beads (GE Healthcare, cat. #RPNQ0150) in 18 mM zinc sulphate solution (stop reagent). After 1 h under shaking, the plate was centrifuged one minute at 170 g to allow beads to settle. Afterwards, radioactive counts were measured on a Perkin Elmer TopCount Scintillation plate reader.

Sequence of human PDE10A full length (Q9Y233 other isoform, or with tags, fused parts or gaps): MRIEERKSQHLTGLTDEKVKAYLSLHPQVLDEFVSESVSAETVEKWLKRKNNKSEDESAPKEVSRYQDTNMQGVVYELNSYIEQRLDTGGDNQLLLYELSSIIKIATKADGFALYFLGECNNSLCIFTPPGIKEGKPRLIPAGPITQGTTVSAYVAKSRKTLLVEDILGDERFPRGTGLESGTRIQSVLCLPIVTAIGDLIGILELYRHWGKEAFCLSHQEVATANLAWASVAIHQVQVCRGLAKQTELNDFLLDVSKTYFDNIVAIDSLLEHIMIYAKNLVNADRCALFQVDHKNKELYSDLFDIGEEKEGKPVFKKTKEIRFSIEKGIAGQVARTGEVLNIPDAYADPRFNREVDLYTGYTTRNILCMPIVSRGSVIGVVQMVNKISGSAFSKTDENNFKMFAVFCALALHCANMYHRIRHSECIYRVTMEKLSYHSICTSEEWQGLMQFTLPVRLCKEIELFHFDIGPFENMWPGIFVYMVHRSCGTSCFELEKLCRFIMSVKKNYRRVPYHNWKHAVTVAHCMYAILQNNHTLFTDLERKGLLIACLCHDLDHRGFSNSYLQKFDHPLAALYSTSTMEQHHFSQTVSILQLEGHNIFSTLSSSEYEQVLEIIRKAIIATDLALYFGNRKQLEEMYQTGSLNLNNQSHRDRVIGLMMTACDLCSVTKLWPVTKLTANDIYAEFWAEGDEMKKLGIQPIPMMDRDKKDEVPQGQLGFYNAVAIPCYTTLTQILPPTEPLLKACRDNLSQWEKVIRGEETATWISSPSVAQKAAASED

Compound | IC50 [nM]
c1cc(COc2ccc3nc(C4CC4)cn3n2)nc(N2CCCC2)c1 [Example 55, 2-Cyclopropyl-6-((6-(pyrrolidin-1-yl)pyridin-2-yl)methoxy)imidazo[1,2-b]pyridazine] | 600
Cc1nc2ccccc2nc1OCc1cccc(N2CCCC2)n1 [Example 9, 2-Methyl-3-((6-(pyrrolidin-1-yl)pyridin-2-yl)methoxy)quinoxaline] | 30
Cc1c(C(N)=O)nc2ccc(OCc3cccc(N4CCCC4)n3)nn12 [Example 56, 3-Methyl-6-((6-(pyrrolidin-1-yl)pyridin-2-yl)methoxy)imidazo[1,2-b]pyridazine-2-carboxamide] | 1050
Cc1nn2ccc(CCc3cccc(N4CCCC4)n3)nc2c1C [Example 58, 2,3-Dimethyl-5-(2-(6-(pyrrolidin-1-yl)pyridin-2-yl)ethyl)pyrazolo[1,5-a]pyrimidine] | 300
Cc1nc2ccccc2nc1OCc1cccc(N2CCCCC2)n1 [Example 15, 2-Methyl-3-((6-(piperidin-1-yl)pyridin-2-yl)methoxy)quinoxaline] | 1680
Cc1ncc(C)n2nc(/C=C/c3cccc(N4CCCC4)n3)nc12 [Example 43, (E)-5,8-Dimethyl-2-(2-(6-(pyrrolidin-1-yl)pyridin-2-yl)vinyl)[1,2,4]triazolo[1,5-a]pyrazine] | 12
CN(C)c1nc(/C=C/c2cccc(N3CCCC3=O)n2)nc2ccc(Cl)cc12 [Example 36, (E)-1-(6-(2-(6-chloro-4-(dimethylamino)quinazolin-2-yl)vinyl)pyridin-2-yl)pyrrolidin-2-one] | 820
Cn1cc(-c2ccccc2)nc1CCc1cccc(N2CCOCC2)n1 [Example 7, 4-(6-(2-(1-Methyl-4-phenyl-1H-imidazol-2-yl)ethyl)pyridin-2-yl)morpholine] | 3140
Cc1cccc2c(=O)[nH]c(CCc3cccc(N4CCCC4)n3)nc12 [Example 37, 8-methyl-2-(2-(6-(pyrrolidin-1-yl)pyridin-2-yl)ethyl)quinazolin-4(3H)-one] | 3270
O=c1[nH]c(CCc2cccc(N3CCCC3)n2)nc2cccc(Cl)c12 [Example 26, 5-Chloro-2-(2-(6-(pyrrolidin-1-yl)pyridin-2-yl)ethyl)quinazolin-4(3H)-one] | 400
Cc1ncc(C)n2nc(CCc3cncc(N4CCCC4)n3)nc12 [Example 51, 5,8-Dimethyl-2-(2-(6-(pyrrolidin-1-yl)pyrazin-2-yl)ethyl)-[1,2,4]triazolo[1,5-a]pyrazine] | 140
Cc1nc2ccc(CCc3cccc(N4CCCC4)n3)nn2c1C [Example 49, 2,3-Dmethyl-6-(2-(6-(pyrrolidin-1-yl)pyridin-2-yl)ethyl)imidazo[1,2-b]pyridazine] | 630
Cn1cc(-c2ccccc2)nc1CCc1cccc(N2CCCC2)n1 [Example 6, 2-(2-(1-Methyl-4-phenyl-1H-imidazol-2-yl)ethyl)-6-(pyrrolidin-1-yl)pyridine] | 1840
COc1c(C)cnc(/C=C/c2cccc(N3CCCC3)n2)c1C [Example 3, (E)-4-methoxy-3,5-dimethyl-2-(2-(6-(pyrrolidin-1-yl)pyridin-2-yl)vinyl)pyridine] | 790
Cc1nc2ccccc2nc1CCc1cccc(N2CCCC2)n1 [Example 11, 2-Methyl-3-[2-(6-pyrrolidin-1-yl-pyridin-2-yl)-ethyl]-quinoxaline] | 120
Cc1oc(-c2ccccc2)nc1CCc1cccc(N2CCCC2)n1 [Example 12, 2-[2-(5-Methyl-2-phenyl-oxazol-4-yl)-ethyl]-6-pyrrolidin-1-yl-pyridine] | 2000

Compound | IC50 [nM]
CNc1cccc(CCc2nc(-c3ccccc3)cn2C)n1 [Example 4, Methyl-{6-[2-(1-methyl-4-phenyl-1H-imidazol-2-yl)-ethyl]-pyridin-2-yl}-amine] | 4060
Cc1cc(N2CCCC2)nc(/C=C/c2ccc3ccccc3n2)n1 [Example 1, (E)-2-[2-(4-Methyl-6-pyrrolidin-1-yl-pyrimidin-2-yl)-vinyl]-quinoline] | 530
Clc1ccc2nc(/C=C/c3cccc(N4CCCC4)n3)nc(N3CCOCC3)c2c1 [Example 19, (E)-4-(6-Chloro-2-(2-(6-(pyrrolidin-1-yl)pyridin-2-yl)vinyl)quinazolin-4-yl)morpholine] | 6.3
Cc1ncc(C)n2nc(CCc3cccc(N4CCCC4)n3)nc12 [Example 45, 5,8-Dimethyl-2-(2-(6-(pyrrolidin-1-yl)pyridin-2-yl)ethyl)-[1,2,4]triazolo-[1,5-a]pyrazine] | 4.5
Cc1cc(C)n2nc(CCc3cccc(N4CCCC4)n3)nc2n1 [Example 48, 5,7-Dimethyl-2-[2-(6-pyrrolidin-1-yl-pyridin-2-yl)-ethyl]-[1,2,4]triazolo[1,5-a]pyrimidine] | 110
CN(C)c1nc(/C=C/c2cccc(N3CCC(CO)C3)n2)nc2ccc(Cl)cc12 (centres unmarked) [Example 25, (E)-(1-(6-(2-(6-Chloro-4-(dimethylamino)quinazolin-2-yl)vinyl)pyridin-2-yl)pyrrolidin-3-yl)methanol] | 220
CN(C)c1nc(CCc2cccc(N3CCC(O)C3)n2)nc2ccc(Cl)cc12 (centres unmarked) [Example 31, 1-(6-(2-(6-Chloro-4-(dimethylamino)quinazolin-2-yl)ethyl)pyridin-2-yl)pyrrolidin-3-ol] | 770
Cc1ncc(C)n2nc(/C=C/c3cncc(N4CCCC4)n3)nc12 [Example 50, (E)-5,8-Dim ethyl-2-(2-(6-(pyrrolidin-1-yl)pyrazin-2-yl)vinyl)[1,2,4]triazolo[1,5-a]pyrazine] | 18
CCc1nc2ccc(OCc3cccc(N4CCCC4)n3)nn2c1C [Example 52, 2-Ethyl-3-methyl-6-((6-(pyrrolidin-1-yl)pyridin-2-yl)methoxy)imidazo[1,2-b]pyridazine] | 540
CN(C)c1cccc(/C=C/c2nc(N(C)C)c3cc(Cl)ccc3n2)n1 [Example 41, (E)-6-Chloro-2-(2-(6-(dimethylamino)pyridin-2-yl)vinyl)-N,N-dimethylquinazolin-4-amine] | 750
Cc1nc(C)c(CCc2cccc(N3CCCC3)n2)nc1C [Example 8, 2,3,5-Trimethyl-6-(2-(6-(pyrrolidin-1-yl)pyridin-2-yl)ethyl)pyrazine] | 600
Clc1ccc2nc(OCc3cccc(N4CCCC4)n3)nc(N3CCOCC3)c2c1 [Example 13, 4-(6-Chloro-2-((6-(pyrrolidin-1-yl)pyridin-2-yl)methoxy)quinazolin-4-yl)morpholine] | 2.5
CN(C)c1nc(OCc2cccc(N3CCCC3)n2)nc2ccc(Cl)cc12 [Example 17, 6-Chloro-N,N-dimethyl-2-((6-(pyrrolidin-1-yl)pyridin-2-yl)methoxy)quinazolin-4-amine] | 7
CN(C)c1nc(CCc2cccc(N3CCC(O)C3)n2)nc2ccccc12 (centres unmarked) [Example 32, 1-(6-(2-(4-(Dimethylamino)quinazolin-2-yl)ethyl)pyridin-2-yl)-pyrrolidin-3-ol] | 480
c1cc(CCc2nc(N3CCOCC3)c3ccccc3n2)nc(N2CCCC2)c1 [Example 21, 4-(2-(2-(6-(Pyrrolidin-1-yl)pyridin-2-yl)ethyl)quinazolin-4-yl)morpholine] | 46
O=c1[nH]c(CCc2cccc(N3CCCC3)n2)nc2ccc(Cl)cc12 [Example 29, 6-Chloro-2-(2-(6-(pyrrolidin-1-yl)pyridin-2-yl)ethyl)quinazolin-4(3H)-one] | 100
